Experimental data published in patent US12186283B2, “Bismuth-thiol compositions and methods of use” (Microbion Corporation, priority 2018, dated 2025).
Read-outs that look alike come from different tables or passages of the source.

Experiments:
Format in all cases: cell-based
[1] = system: Candida krusei; assay: Broth microdilution MIC, yeast (Example 13)
[2] = system: Candida glabrata; assay: Broth microdilution MIC, yeast (Example 13)
[3] = system: Aspergillus spp.; assay: Broth microdilution MIC/MEC, mold (Example 13); conditions: for MIC0 (complete inhibition): comparators, read time not given
[4] = system: Candida albicans; assay: Broth microdilution MIC, yeast (Example 13); conditions: 24 hr
[5] = system: Candida auris; assay: Broth microdilution MIC, yeast (Example 13)
[6] = C. krusei ATCC 14243, Susceptible
[7] = C. krusei ATCC 96685, Susceptible
[8] = C. krusei MMX 7125, Susceptible
[9] = C. krusei MMX 7128, Susceptible
[10] = C. krusei MMX 7141, Susceptible
[11] = C. krusei MMX 7155, Susceptible
[12] = C. krusei MMX 7563, Susceptible
[13] = C. krusei MMX 9878, MICA-I, VORI-I
[14] = Candida glabrata ATCC 90030, Susceptible
[15] = Candida glabrata ATCC MYA-2950, Susceptible
[16] = Candida glabrata MMX 7087, Susceptible
[17] = Candida glabrata MMX 7093, FLU-R
[18] = Candida glabrata MMX 7101, FLU-R
[19] = Candida glabrata MMX 7103, CASP-R, MICA-R
[20] = Candida glabrata MMX 7111, Susceptible
[21] = Candida glabrata MMX 7285, CASP-R, MICA-R
[22] = Candida glabrata MMX 7307, CASP-R, MICA-R, FLU-R
[23] = Candida glabrata MMX 7549, Susceptible
[24] = Candida albicans ATCC 90028, Susceptible
[25] = Candida albicans ATCC 204276, MICA-R
[26] = Candida albicans ATCC MYA-2732, FLU-R, VORI-I
[27] = Candida albicans MMX 7053, Susceptible
[28] = Candida albicans MMX 7067, FLU-R, VORI-R
[29] = Candida albicans MMX 7403, Susceptible
[30] = Candida albicans MMX 7424, CASP-R, MICA-R
[31] = Candida albicans MMX 7430, Susceptible
[32] = Candida albicans MMX 7437, FLU-I
[33] = Candida albicans MMX 7445, FLU-R, VORI-R
[34] = C. auris MMX 9863, FLU-R, VORI-R
[35] = C. auris MMX 9864, FLU-R, VORI-R
[36] = C. auris MMX 9865, FLU-R, VORI-R
[37] = C. auris MMX 9866, FLU-R, VORI-R
[38] = C. auris MMX 9867, FLU-R, VORI-R
[39] = C. auris MMX 9868, FLU-R, VORI-R
[40] = C. auris MMX 9869, FLU-R, VORI-R
[41] = C. auris MMX 9870, FLU-R, VORI-R

Structure (SMILES): C[C@@H](c1ncncc1F)[C@](O)(Cn1cncn1)c1ccc(F)cc1F [VORI]
- MIC2 (50% inhibition) ([1]; C. krusei ATCC 6258, MICA-I): 0.12 µg/mL
- MIC2 (50% inhibition) [1, 6]: 0.06 µg/mL
- MIC2 (50% inhibition) [1, 7]: 0.5 µg/mL
- MIC2 (50% inhibition) [1, 8]: 0.25 µg/mL
- MIC2 (50% inhibition) [1, 9]: 0.12 µg/mL
- MIC2 (50% inhibition) [1, 10]: 0.12 µg/mL
- MIC2 (50% inhibition) ([1]; C. krusei MMX 7153, MICA-R): 0.25 µg/mL
- MIC2 (50% inhibition) [1, 11]: 0.25 µg/mL
- MIC2 (50% inhibition) [1, 12]: 0.25 µg/mL
- MIC2 (50% inhibition) [1, 13]: 1 µg/mL
- MIC2 (50% inhibition) [2, 14]: 0.12 µg/mL
- MIC2 (50% inhibition) [2, 15]: 0.12 µg/mL
- MIC2 (50% inhibition) [2, 16]: 0.03 µg/mL
- MIC2 (50% inhibition) [2, 17]: 2 µg/mL
- MIC2 (50% inhibition) [2, 18]: 2 µg/mL
- MIC2 (50% inhibition) [2, 19]: 0.12 µg/mL
- MIC2 (50% inhibition) [2, 20]: 0.06 µg/mL
- MIC2 (50% inhibition) [2, 21]: 1 µg/mL
- MIC2 (50% inhibition) [2, 22]: 4 µg/mL
- MIC2 (50% inhibition) [2, 23]: 0.06 µg/mL
- MIC0 (complete inhibition) ([3]; A. flavus ATCC 22546): 1 µg/mL
- MIC0 (complete inhibition) ([3]; A. flavus ATCC 204304): 2 µg/mL
- MIC0 (complete inhibition) ([3]; A. flavus MMX 7935): 0.5 µg/mL
- MIC0 (complete inhibition) ([3]; A. fumigatus ATCC 204305): 0.5 µg/mL
- MIC0 (complete inhibition) ([3]; A. fumigatus ATCC MYA-3626): 0.5 µg/mL
- MIC0 (complete inhibition) ([3]; A. fumigatus MMX 5934): 0.25 µg/mL
- MIC0 (complete inhibition) ([3]; A. fumigatus MMX 5938): 0.25 µg/mL
- MIC0 (complete inhibition) ([3]; A. fumigatus MMX 5939): 2 µg/mL
- MIC0 (complete inhibition) ([3]; A. niger ATCC 29508): 0.5 µg/mL
- MIC0 (complete inhibition) ([3]; A. terreus MMX 8229): 0.25 µg/mL
- MIC2 (50% inhibition) [4, 24]: ≤0.008 µg/mL
- MIC2 (50% inhibition) [4, 25]: ≤0.008 µg/mL
- MIC2 (50% inhibition) [4, 26]: 0.5 µg/mL
- MIC2 (50% inhibition) [4, 27]: ≤0.008 µg/mL
- MIC2 (50% inhibition) [4, 28]: >8 µg/mL
- MIC2 (50% inhibition) [4, 29]: ≤0.008 µg/mL
- MIC2 (50% inhibition) [4, 30]: ≤0.008 µg/mL
- MIC2 (50% inhibition) [4, 31]: ≤0.008 µg/mL
- MIC2 (50% inhibition) [4, 32]: 0.12 µg/mL
- MIC2 (50% inhibition) [4, 33]: >8 µg/mL
- MIC2 (50% inhibition) ([5]; C. auris MMX 9862, Susceptible): 0.03 µg/mL
- MIC2 (50% inhibition) [5, 34]: >8 µg/mL
- MIC2 (50% inhibition) [5, 35]: 2 µg/mL
- MIC2 (50% inhibition) [5, 36]: 8 µg/mL
- MIC2 (50% inhibition) [5, 37]: 8 µg/mL
- MIC2 (50% inhibition) [5, 38]: 8 µg/mL
- MIC2 (50% inhibition) [5, 39]: >8 µg/mL
- MIC2 (50% inhibition) [5, 40]: 2 µg/mL
- MIC2 (50% inhibition) [5, 41]: 4 µg/mL
- MIC2 (50% inhibition) ([5]; C. auris MMX 9871, Susceptible): 1 µg/mL

Structure (SMILES): OC(Cn1cncn1)(Cn1cncn1)c1ccc(F)cc1F [FLU]
- MIC2 (50% inhibition) [1]: 32 µg/mL
- MIC2 (50% inhibition) ([1]; C. krusei ATCC 6258, MICA-I): 16 µg/mL
- MIC2 (50% inhibition) [1, 6]: 16 µg/mL
- MIC2 (50% inhibition) [1, 7]: 32 µg/mL
- MIC2 (50% inhibition) [1, 8]: 32 µg/mL
- MIC2 (50% inhibition) [1, 9]: 16 µg/mL
- MIC2 (50% inhibition) [1, 10]: 16 µg/mL
- MIC2 (50% inhibition) [1, 11]: 32 µg/mL
- MIC2 (50% inhibition) [1, 12]: 32 µg/mL
- MIC2 (50% inhibition) [1, 13]: 64 µg/mL
- MIC2 (50% inhibition) [2, 14]: 8 µg/mL
- MIC2 (50% inhibition) [2, 15]: 8 µg/mL
- MIC2 (50% inhibition) [2, 16]: 1 µg/mL
- MIC2 (50% inhibition) [2, 20]: 2 µg/mL
- MIC2 (50% inhibition) [2, 23]: 4 µg/mL
- MIC2 ([3]; A. flavus ATCC 22546): >64 µg/mL
- MIC2 ([3]; A. flavus ATCC 204304): >64 µg/mL
- MIC2 ([3]; A. flavus MMX 7935): >64 µg/mL
- MIC2 ([3]; A. fumigatus ATCC 204305): >64 µg/mL
- MIC2 ([3]; A. fumigatus ATCC MYA-3626): >64 µg/mL
- MIC2 ([3]; A. fumigatus MMX 5934): >64 µg/mL
- MIC2 ([3]; A. fumigatus MMX 5938): >64 µg/mL
- MIC2 ([3]; A. fumigatus MMX 5939): >64 µg/mL
- MIC2 ([3]; A. niger ATCC 29508): >64 µg/mL
- MIC2 ([3]; A. terreus MMX 8229): >64 µg/mL
- MIC2 (50% inhibition) [4, 24]: 0.25 µg/mL
- MIC2 (50% inhibition) [4, 27]: 0.12 µg/mL
- MIC2 (50% inhibition) [4, 29]: 1 µg/mL
- MIC2 (50% inhibition) [4, 31]: 0.5 µg/mL
- MIC2 (50% inhibition) [4, 32]: 4 µg/mL
- MIC2 (50% inhibition) [5]: >64 µg/mL
- MIC2 (50% inhibition) ([5]; C. auris MMX 9862, Susceptible): 2 µg/mL
- MIC2 (50% inhibition) ([5]; C. auris MMX 9871, Susceptible): >64 µg/mL

Structure (SMILES): C[C@@H]1[C@H](O)[C@@H](C)/C=C/C=C/C=C/C=C/C=C/C=C/C=C/[C@H](O[C@@H]2O[C@H](C)[C@@H](O)[C@H](N)[C@@H]2O)C[C@@H]2O[C@](O)(C[C@@H](O)C[C@@H](O)[C@H](O)CC[C@@H](O)C[C@@H](O)CC(=O)O[C@H]1C)C[C@H](O)[C@H]2C(=O)O [AMP B]
- MIC0 (complete inhibition) ([1]; C. krusei ATCC 6258, MICA-I): 0.5 µg/mL
- MIC0 (complete inhibition) [1, 6]: 0.25 µg/mL
- MIC0 (complete inhibition) [1, 7]: 0.5 µg/mL
- MIC0 (complete inhibition) [1, 8]: 0.5 µg/mL
- MIC0 (complete inhibition) [1, 9]: 0.5 µg/mL
- MIC0 (complete inhibition) [1, 10]: 0.25 µg/mL
- MIC0 (complete inhibition) ([1]; C. krusei MMX 7153, MICA-R): 0.5 µg/mL
- MIC0 (complete inhibition) [1, 11]: 0.25 µg/mL
- MIC0 (complete inhibition) [1, 12]: 0.5 µg/mL
- MIC0 (complete inhibition) [1, 13]: 0.5 µg/mL
- MIC0 (complete inhibition) [2, 14]: 0.25 µg/mL
- MIC0 (complete inhibition) [2, 15]: 0.12 µg/mL
- MIC0 (complete inhibition) [2, 16]: 0.12 µg/mL
- MIC0 (complete inhibition) [2, 17]: 0.25 µg/mL
- MIC0 (complete inhibition) [2, 18]: 0.25 µg/mL
- MIC0 (complete inhibition) [2, 19]: 0.25 µg/mL
- MIC0 (complete inhibition) [2, 20]: 0.25 µg/mL
- MIC0 (complete inhibition) [2, 21]: 0.25 µg/mL
- MIC0 (complete inhibition) [2, 22]: 0.25 µg/mL
- MIC0 (complete inhibition) [2, 23]: 0.25 µg/mL
- MIC0 (complete inhibition) ([3]; A. flavus ATCC 22546): 1 µg/mL
- MIC0 (complete inhibition) ([3]; A. flavus ATCC 204304): 1 µg/mL
- MIC0 (complete inhibition) ([3]; A. flavus MMX 7935): 1 µg/mL
- MIC0 (complete inhibition) ([3]; A. fumigatus ATCC 204305): 1 µg/mL
- MIC0 (complete inhibition) ([3]; A. fumigatus ATCC MYA-3626): 1 µg/mL
- MIC0 (complete inhibition) ([3]; A. fumigatus MMX 5934): 1 µg/mL
- MIC0 (complete inhibition) ([3]; A. fumigatus MMX 5938): 1 µg/mL
- MIC0 (complete inhibition) ([3]; A. fumigatus MMX 5939): 1 µg/mL
- MIC0 (complete inhibition) ([3]; A. niger ATCC 29508): 0.25 µg/mL
- MIC0 (complete inhibition) ([3]; A. terreus MMX 8229): 0.25 µg/mL
- MIC0 (complete inhibition) [4, 24]: 0.25 µg/mL
- MIC0 (complete inhibition) [4, 25]: 0.25 µg/mL
- MIC0 (complete inhibition) [4, 26]: 0.25 µg/mL
- MIC0 (complete inhibition) [4, 27]: 0.12 µg/mL
- MIC0 (complete inhibition) [4, 28]: 0.25 µg/mL
- MIC0 (complete inhibition) [4, 29]: 0.25 µg/mL
- MIC0 (complete inhibition) [4, 30]: 0.25 µg/mL
- MIC0 (complete inhibition) [4, 31]: 0.25 µg/mL
- MIC0 (complete inhibition) [4, 32]: 0.25 µg/mL
- MIC0 (complete inhibition) [4, 33]: 0.12 µg/mL
- MIC0 (complete inhibition) ([5]; C. auris MMX 9862, Susceptible): 0.25 µg/mL
- MIC0 (complete inhibition) [5, 34]: 0.12 µg/mL
- MIC0 (complete inhibition) [5, 35]: 0.25 µg/mL
- MIC0 (complete inhibition) [5, 36]: 0.25 µg/mL
- MIC0 (complete inhibition) [5, 37]: 0.5 µg/mL
- MIC0 (complete inhibition) [5, 38]: 0.5 µg/mL
- MIC0 (complete inhibition) [5, 39]: 0.25 µg/mL
- MIC0 (complete inhibition) [5, 40]: 1 µg/mL
- MIC0 (complete inhibition) [5, 41]: 1 µg/mL
- MIC0 (complete inhibition) ([5]; C. auris MMX 9871, Susceptible): 1 µg/mL
